pIC50: −log10 of the molar value.
Target: T1, E1 ubiquitin-activating enzyme (UBE1) (Homo sapiens, UniProt P22314)
T1 construct: gene UBA1
T1 sequence (P22314 2-1058): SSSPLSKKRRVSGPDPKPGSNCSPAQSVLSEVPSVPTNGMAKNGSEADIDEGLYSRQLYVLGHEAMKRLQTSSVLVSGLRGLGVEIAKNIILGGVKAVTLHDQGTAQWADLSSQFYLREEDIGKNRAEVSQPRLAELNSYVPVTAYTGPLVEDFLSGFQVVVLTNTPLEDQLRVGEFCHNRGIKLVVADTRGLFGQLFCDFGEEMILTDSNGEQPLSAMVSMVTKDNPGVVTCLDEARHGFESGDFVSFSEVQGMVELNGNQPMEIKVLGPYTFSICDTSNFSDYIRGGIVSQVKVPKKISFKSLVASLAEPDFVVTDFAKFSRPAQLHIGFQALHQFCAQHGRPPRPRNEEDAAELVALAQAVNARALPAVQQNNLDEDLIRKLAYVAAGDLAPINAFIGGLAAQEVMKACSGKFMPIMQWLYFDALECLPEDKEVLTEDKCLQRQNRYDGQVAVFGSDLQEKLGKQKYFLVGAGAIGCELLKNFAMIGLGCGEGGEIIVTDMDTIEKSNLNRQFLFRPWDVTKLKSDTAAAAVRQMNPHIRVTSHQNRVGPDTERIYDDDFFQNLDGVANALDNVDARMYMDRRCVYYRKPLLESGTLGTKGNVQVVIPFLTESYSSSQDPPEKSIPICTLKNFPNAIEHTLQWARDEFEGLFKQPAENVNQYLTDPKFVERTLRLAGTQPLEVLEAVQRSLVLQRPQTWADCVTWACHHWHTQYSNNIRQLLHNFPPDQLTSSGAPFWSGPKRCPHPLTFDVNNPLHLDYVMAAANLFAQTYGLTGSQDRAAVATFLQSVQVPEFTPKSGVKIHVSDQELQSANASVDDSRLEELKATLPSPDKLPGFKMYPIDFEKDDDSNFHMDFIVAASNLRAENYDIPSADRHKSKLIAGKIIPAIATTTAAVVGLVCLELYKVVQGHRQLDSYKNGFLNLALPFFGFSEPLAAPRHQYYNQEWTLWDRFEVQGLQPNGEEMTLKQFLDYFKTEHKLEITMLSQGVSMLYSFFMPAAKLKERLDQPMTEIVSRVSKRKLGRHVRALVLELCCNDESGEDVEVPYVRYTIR
Assay: fluorescence polarization of E1~TAMRA-Ub complex formation with purified E1 (UbiReal), endpoint dose-response
Format: biochemical

Compound: CCOC(=O)c1ccc(N2NC(=O)C(=Cc3ccc([N+](=O)[O-])o3)C2=O)cc1 [PYR-41]
- pIC50: 5.04

From article PMC6904270, “A High-Throughput Assay for Monitoring Ubiquitination in Real Time” (Frontiers in Chemistry, 2019)
